From patent US20240382475A1, “Quinazoline Derivative, Or Preparation Method Therefor And Use Thereof” (Zhejiang Hisun Pharmaceutical Co., Ltd., priority 2021, published 2024)

Experiments:
[1] = system: OCI-AML5 cells; assay: Inhibition of OCI-AML5 cell proliferation (CellTiter-Glo); assay type: cell-based; settings: Homo sapiens, OCI-AML-5; OCI-AML5 cells (SOS1 N233Y mutation), 120 hours
Method in brief: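 OCI-AML5 cells (SOS1 N233Y), 1,000 per well, treated after overnight culture with compound at final 10000 nM to 0.15 nM for 120 hours at 37° C, 5% CO2. Viability read by CellTiter-Glo luminescence.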

[2] = system: human lung cancer NCI-H2122 subcutaneous xenotransplanted tumor; assay: Pharmacodynamic evaluation in nude mouse subcutaneous xenotransplanted model of human lung cancer NCI-H2122; assay type: in vivo, Balb/c nude mouse
Description: The anti-tumor effect and safety of compound 11 of the present invention were evaluated in a Balb/c nude mouse animal model of subcutaneous xenotransplanted NCI-H2122.
BALB/c; nude mice, female, 6-7 weeks old (the age of mice when tumor cells were inoculated), purchased from Jiangsu Jicui Yaokang Biotechnology Co., Ltd.
The solvent control group was given DMSO:castor oil:5% glucose injection=20:10:70 (v/v/v).
(§1) AMG-510: an appropriate amount of AMG-510 was weighed, and an appropriate amount of DMSO:castor oil:5% glucose injection=20:10:70 (v/v/v) was added. After the above mixture was fully dissolved, an appropriate amount of 1 M hydrochloric acid was added, vortexed and mixed to prepare a solution with a concentration of 3 mg/mL.
as §1, with “Compound 11:” for “AMG-510:”, “compound 11” for “AMG-510”
H2122 cells were cultured in 1640 culture medium containing 10% fetal bovine serum and 1% penicillin-streptomycin-amphotericin B solution. H2122 cells in the exponential growth phase were collected and resuspended in matrigel solution (matrigel:PBS=1:1 (V/V)) to a suitable concentration for subcutaneous tumor inoculation in nude mice.
Female Balb/c nude mice were subcutaneously inoculated with about 3.0×10^6H2122 cells on the right sides of their backs. When the average volume of the tumors reaches about 150-200 mm^3, the mice were randomly divided according to the tumor sizes with 6 mice in each group.
• Group 1 (G1), solvent control group; • Group 2 (G2), AMG-510 was given by intragastric administration at a dose of 30 mg/kg; • Group 3 (G3), Example 11 was given by intragastric administration at a dose of 30 mg/kg; • Group 4 (G4), AMG-510 and Example 11 were administered in combination, and the dosages were respectively: AMG-510, 30 mg/kg (QD); Example 11, 30 mg/kg (QD).
After tumor inoculation, routine monitoring included the effects of tumor growth and treatment on the normal behaviors of the animals, specifically the mobility, feeding and drinking, weight gain or loss, eyes, coat and other abnormalities of the experimental animals.
Calculation formulae for a relative tumor volume (RTV), a relative tumor proliferation rate (T/C) and a tumor inhibition percentage (IR) were as follows: • (1) TV (tumor volume)=½×a×b^2, wherein a and b represent the length and width of the tumor respectively; • (2) RTV (relative tumor volume)=Vt/Vo, wherein Vo is the tumor volume measured at the time of administration when grouping (i.e. do), and Vt is the tumor volume at each measurement; • (3) relative tumor proliferation rate T/C (%)=TRTV/CRTV×100%, wherein TRTV is the RTV of the treatment group and CRTV is the RTV of the control group; • (4) Tumor growth inhibition rate TGI(%)=(1−T/C)×100%; wherein, T and C are the relative tumor volumes of the treatment group and the control group at a specific time point. • (5) IR (%)=(1−TWt/TWc)×100%, wherein, TWt is the tumor weight of the treatment group and TWc is the tumor weight of the control group. The anti-tumor evaluation criteria are (cytotoxic drugs): T/C(%)>40% is invalid; T/C(%)≤40%, and after statistical processing, P<0.05 is effective.

[3] = 16 days after administration, 30 mg/kg each agent
[4] = end of the experiment, 30 mg/kg each agent

SMILES: COc1cc2nc(C)nc(N[C@H](C)c3cccc(C#N)c3C)c2cc1N1CCOCC1 [Compound 1, (R)-3-(1-((7-methoxy-2-methyl-6-morpholinoquinazolin-4-yl)amino)ethyl)-2-methylbenzonitrile]
- IC50 [1]: 46.4 nM

SMILES: COc1cc2nc(C)nc(N[C@H](C)c3cccc(C#N)c3C)c2cc1N1CCN(C(C)=O)CC1 [Compound 2, (R)-3-(1-((6-(4-acetylpiperazin-1-yl)-7-methoxy-2-methylquinazolin-4-yl)amino)ethyl)-2-methylbenzonitrile]
- IC50 [1]: 8.4 nM

SMILES: COc1cc2nc(C)nc(N[C@H](C)c3cccc(C#N)c3C)c2cc1N1CCC2(CCOCC2)CC1 [Compound 4, (R)-3-(1-((7-methoxy-2-methyl-6-(3-oxa-9-azaspiro[5.5]undecan-9-yl)quinazolin-4-yl)amino)ethyl)-2-methylbenzonitrile]
- IC50 [1]: 6.3 nM

SMILES: COc1cc2nc(C)nc(N[C@H](C)c3cccc(C#N)c3C)c2cc1N1CCC2(CC1)COC2 [Compound 5, (R)-3-(1-((7-methoxy-2-methyl-6-(2-oxa-7-azaspiro[3.5]nonan-7-yl)quinazolin-4-yl)amino)ethyl)-2-methylbenzonitrile]
- IC50 [1]: 11.3 nM

SMILES: COc1cc2nc(C)nc(N[C@H](C)c3cccc(C#N)c3C)c2cc1N1CCC2(CCN(C)C2=O)CC1 [Compound 7, (R)-3-(1-((7-methoxy-2-methyl-6-(2-methyl-1-oxo-2,8-diazaspiro[4.5]decan-8-yl)quinazolin-4-yl)amino)ethyl)-2-methylbenzonitrile]
- IC50 [1]: 2.7 nM

SMILES: COc1cc2nc(C)nc(N[C@H](C)c3cccc(C#N)c3C)c2cc1N1CCC(C#N)CC1 [Compound 8, (R)-1-(4-((1-(3-cyano-2-methylphenyl)ethyl)amino)-7-methoxy-2-methylquinazolin-6-yl)piperidine-4-carbonitrile]
- IC50 [1]: 12 nM

SMILES: COc1cc2nc(C)nc(N[C@H](C)c3cccc(C#N)c3C)c2cc1N1CCC(C)(O)CC1 [Compound 11, (R)-3-(1-((6-(4-hydroxy-4-methylpiperidin-1-yl)-7-methoxy-2-methylquinazolin-4-yl)amino)ethyl)-2-methylbenzonitrile]
- Relative tumor volume (x ± S) [2, 3]: 4.03 ± 0.67
- TGI % [2, 3]: 20.7%
- Tumor volume (x ± S) ([2]; Day 0 after administration, 30 mg/kg each agent, intragastric): 199 ± 18 mm^3
- Tumor volume (x ± S) ([2]; Day 3 after administration, 30 mg/kg each agent, intragastric): 329 ± 36 mm^3
- Tumor volume (x ± S) ([2]; Day 7 after administration, 30 mg/kg each agent, intragastric): 460 ± 53 mm^3
- Tumor volume (x ± S) ([2]; Day 10 after administration, 30 mg/kg each agent, intragastric): 551 ± 60 mm^3
- Tumor volume (x ± S) ([2]; Day 14 after administration, 30 mg/kg each agent, intragastric): 704 ± 88 mm^3
- Tumor volume (x ± S) ([2]; Day 16 after administration, 30 mg/kg each agent, intragastric): 757 ± 90 mm^3
- Tumor volume (x ± S) ([2]; Table 11, 16 days after administration, 30 mg/kg each agent, in mm³): 757 ± 90
- Inhibition rate of tumor weight (%) [2, 4]: 16.8%
- Tumor weight (g) (x ± S) [2, 4]: 0.6283 ± 0.0663 g
- anti-tumor activity (conclusion in words) ([2]; under the combination with AMG-510, KRAS-G12C inhibitor non-sensitive cell line NCI-H2122): good anti-tumor activity
- IC50 [1]: 13.6 nM

SMILES: COc1cc2nc(C)nc(N[C@H](C)c3cccc(C#N)c3C)c2cc1N1CCC2(CC1)CN(C(C)=O)C2 [Compound 19, (R)-3-(1-((6-(2-acetyl-2,7-diazaspiro[3.5]nonan-7-yl)-7-methoxy-2-methylquinazolin-4-yl)amino)ethyl)-2-methylbenzonitrile]
- IC50 [1]: 16.4 nM
